The species entered for the assay is Homo sapiens. Kind of assay: Concentration that inhibits transcriptional activation of Tat protein in human cells. It is filed as functional, cell-based.

Usually IC50 stands for the concentration at which inhibition is half-maximal. Read a high IC50 as weaker potency.

`N=C(N)NCCC[C@@H](COC(=O)N[C@@H](CCCCN)COC(=O)N[C@@H](CCCCN)COC(=O)N[C@@H](CCCN=C(N)N)COC(=O)N[C@@H](CCCN=C(N)N)COC(=O)N[C@@H](CCC(N)=O)COC(=O)N[C@@H](CCCN=C(N)N)COC(=O)N[C@@H](CCCN=C(N)N)COC(=O)N[C@@H](CCCN=C(N)N)C(=O)O)NC(=O)OCCNC(=O)[C@@H](N)Cc1ccc(O)cc1` displayed an IC50 of 500 nM.

`NCCCC[C@H](CNC(=O)N[C@H](CCCCN)CNC(=O)N[C@H](CCCN=C(N)N)CNC(=O)N[C@H](CCCN=C(N)N)CNC(=O)N[C@H](CCC(N)=O)CNC(=O)N[C@H](CCCN=C(N)N)CNC(=O)N[C@H](CCCN=C(N)N)CNC(=O)N[C@H](CCCN=C(N)N)CNC(=O)[C@@H](N)Cc1ccc(O)cc1)NC(=O)NC[C@@H](CCCN=C(N)N)NC(=O)NCCNC(N)=O` came in with an IC50 of 1000 nM.
